For one data set, the species on record is Homo sapiens. Type of data set: cell-based.
A short description of data set [1]: Cytotoxicity against human PBMC-derived CD3-positive T cells assessed as effect on cell viability at 12.5 uM incubated for 16 hrs by Zombie-NIR staining-based flow cytometry. (Flow cytometry measures light scatter and fluorescence of single cells or particles in a stream.)
For the next data set, the system named is Monocyte. Briefly: Cytotoxicity against human PBMC-derived monocytes assessed as CD3-negative CD14 positive monocyte viability at 12.5 uM incubated for 16 hrs by Zombie-NIR staining-based flow cytometry relative to control. Type of data set: functional.
The target in data set [2] is T1, Stimulator of interferon genes protein (Homo sapiens, UniProt Q86WV6).
T1 sequence (Q86WV6 whole entry): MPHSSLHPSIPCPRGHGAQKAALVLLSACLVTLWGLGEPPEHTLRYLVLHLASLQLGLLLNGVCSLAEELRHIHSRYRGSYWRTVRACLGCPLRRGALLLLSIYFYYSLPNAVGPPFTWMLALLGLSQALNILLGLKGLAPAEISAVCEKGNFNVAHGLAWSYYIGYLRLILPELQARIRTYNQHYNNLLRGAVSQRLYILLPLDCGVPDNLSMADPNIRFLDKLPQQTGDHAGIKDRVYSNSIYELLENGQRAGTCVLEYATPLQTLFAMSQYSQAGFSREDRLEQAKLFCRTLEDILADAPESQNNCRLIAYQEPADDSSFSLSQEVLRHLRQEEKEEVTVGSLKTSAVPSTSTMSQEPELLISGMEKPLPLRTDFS
Description: Binding affinity to recombinant human wild-type STING assessed as change in melting temperature at 150 uM by SYPRO orange dye based differential scanning fluorimetric method
Data set [3] deals with Stimulator of interferon genes protein (Homo sapiens, UniProt Q86WV6, G230A/R293Q/R71H). Briefly: Activation of recombinant human STING haplotype R71H/G230A/R293Q mutant expressed in 293T cells measured after 30 mins in presence of digitonin A by bright Glo-luciferase reporter gene assay. Type of data set: cell-based. (In general: In a reporter assay the amount or activity of a reporter protein is the signal.)
Sequence of Stimulator of interferon genes protein (Homo sapiens, UniProt Q86WV6, G230A/R293Q/R71H) (Q86WV6 whole entry R71H/G230A/R293Q): as the sequence (Q86WV6 whole entry) above, with R71H, G230A, R293Q counted along it

The target of data set [4] is Stimulator of interferon genes protein (Homo sapiens, UniProt Q86WV6, R293Q). Briefly: Activation of recombinant human STING haplotype R293Q mutant expressed in 293T cells measured after 30 mins in presence of digitonin A by bright Glo-luciferase reporter gene assay. It counts as cell-based.
Sequence of Stimulator of interferon genes protein (Homo sapiens, UniProt Q86WV6, R293Q) (Q86WV6 whole entry R293Q): as the sequence (Q86WV6 whole entry) above, with R293Q counted along it
For data set [5], the target named is T1, Stimulator of interferon genes protein. Kind of data set: Activation of recombinant human wild-type STING expressed in 293T cells incubated for 7 hrs in absence of digitonin A by bright Glo-luciferase reporter gene assay. Type of data set: cell-based.
Data set [6] concerns the target Stimulator of interferon genes protein (Homo sapiens, UniProt Q86WV6, G230A/R293Q). Kind of data set: Activation of recombinant human STING haplotype G230A/R293Q mutant expressed in 293T cells measured after 30 mins in presence of digitonin A by bright Glo-luciferase reporter gene assay. Type of data set: cell-based.
The target in data set [7] is T1, Stimulator of interferon genes protein. Briefly: Activation of recombinant human wild-type STING expressed in 293T cells measured after 30 mins in presence of digitonin A by bright Glo-luciferase reporter gene assay. It counts as cell-based.
A short description of the next data set: cells. The settings on record: Homo sapiens, HEK-293T, 0.5 h.

A value given as a limit tells only on which side of the number the result lay.

A word on the ΔTm: it is the change in melting temperature against a reference sample. In general, EC50 refers to the midpoint of the concentration-response curve.

Sequence of Stimulator of interferon genes protein (Homo sapiens, UniProt Q86WV6, G230A/R293Q) (Q86WV6 whole entry G230A/R293Q): as the sequence (Q86WV6 whole entry) above, with G230A, R293Q counted along it
Description for cells: Activation of recombinant human STING haplotype R232H mutant expressed in 293T cells measured after 30 mins in presence of digitonin A by bright Glo-luciferase reporter gene assay

As to `Nc1nc2c(ncn2[C@@H]2O[C@@H]3COP(=O)(O)O[C@H]4[C@@H](O)[C@H](n5cnc6c(=S)[nH]cnc65)O[C@@H]4COP(=O)(O)O[C@@H]2[C@@H]3O)c(=O)[nH]1`, in the data set filed under Homo sapiens, the max activation is under 30%. In addition, the Activity entry in [1] is “Non-Toxic”; in the data set on Monocyte it was 10%. Besides, the ΔTm in data set [2] turned out to be 7.3 °C. In addition, the EC50 in data set [3] worked out at 200 nM; in data set [4] it was 8300 nM; in [5], 182000 nM; in [6] it was 150 nM; in data set [7], 300 nM; in “cells”, 1700 nM.
Regarding `Nc1nc2c(ncn2[C@@H]2O[C@@H]3COP(=O)(O)O[C@H]4C[C@H](n5cnc6c(N)nc(F)nc65)O[C@@H]4COP(=O)(O)O[C@@H]2[C@@H]3F)c(=O)[nH]1`, the max activation in the data set filed under Homo sapiens was under 30%. The Activity result was “Non-Toxic” in data set [1] and 0.2% in the data set on Monocyte. Moreover, the ΔTm in [2] amounted to 10.7 °C. Besides, the EC50 is 100 nM in data set [3]; 700 nM in data set [4]; over 300000 nM in [5]; 170 nM in [6]; 50 nM in data set [7]; 2000 nM in “cells”.
`Nc1nc2c(ncn2[C@@H]2O[C@@H]3COP(=O)(S)O[C@H]4[C@@H](O)[C@H](n5cnc6c(N)ncnc65)O[C@@H]4COP(=O)(O)O[C@@H]2[C@@H]3O)c(=O)[nH]1` (some centres undefined) had a max activation in the data set filed under Homo sapiens of under 30%. The Activity entry was “Non-Toxic” in data set [1] and 9.4% in the data set with Monocyte. The ΔTm in [2] was 13.8 °C. The EC50 in data set [3] was found to be 110 nM; in [4], 140 nM; in data set [6], 120 nM; in data set [7], 60 nM; in “cells”, 600 nM.
Turning to `Cn1c(N)nc2c(ncn2[C@@H]2O[C@@H]3COP(=O)(O)O[C@H]4[C@@H](O)[C@H](n5cnc6c(N)ncnc65)O[C@@H]4COP(=O)(O)O[C@@H]2[C@@H]3O)c1=O`, the max activation in the data set filed under Homo sapiens was under 30%. Also, the Activity entry is “Non-Toxic” in [1] and 2% in the data set on Monocyte. Besides, the ΔTm in data set [2] was determined as 9 °C. Also, the EC50 in data set [3] worked out at 40 nM; in [4], 780 nM; in data set [5] it was 40000 nM; in data set [6], 40 nM; in data set [7], 20 nM; in “cells”, 900 nM.
For `Nc1nc2c(ncn2[C@@H]2O[C@@H]3COP(=O)(O)O[C@H]4[C@@H](O)[C@H](n5nnc6c(N)ncnc65)O[C@@H]4COP(=O)(O)O[C@@H]2[C@@H]3O)c(=O)[nH]1`, in the data set filed under Homo sapiens, the max activation is under 30%. Further, the Activity result in [1] was “Non-Toxic”; in the data set with Monocyte, 2.3%. Moreover, the ΔTm in data set [2] was 3.9 °C. Moreover, the EC50 in [3] is 310 nM; in [4] it was 5720 nM; in data set [5] it was over 300000 nM; in data set [6], 210 nM; in data set [7], 230 nM; in “cells”, 34200 nM.
`NC(=O)c1ncn([C@@H]2O[C@@H]3COP(=O)(O)O[C@@H]4[C@H](O)[C@@H](COP(=O)(O)O[C@H]3[C@H]2O)O[C@H]4n2cnc3c(=O)[nH]c(N)nc32)c1N` yielded a max activation in the data set filed under Homo sapiens of under 30%. The Activity entry in [1] is recorded as “Non-Toxic”; in the data set with Monocyte, 83%. The ΔTm in data set [2] was determined as 1.7 °C. Besides, the EC50 in data set [3] was 210 nM; in data set [4] it was 45300 nM; in data set [5], over 300000 nM; in [6], 210 nM; in data set [7], 320 nM; in “cells”, over 45000 nM.
Compound `Nc1nc2c(ncn2[C@@H]2O[C@@H]3COP(=O)(O)O[C@H]4[C@@H](F)[C@H](n5cnc6c(N)nc(F)nc65)O[C@@H]4COP(=O)(O)O[C@@H]2[C@@H]3O)c(=O)[nH]1` came in with a max activation in the data set listed under Homo sapiens of under 30%. The Activity entry in [1] is “Non-Toxic”; in the data set with Monocyte it was 0.4%. For the same compound, in data set [2], the ΔTm was found to be 14.7 °C. In addition, the EC50 in data set [3] was 80 nM; in [4], 80 nM; in [5], 11000 nM; in data set [6] it was 30 nM; in data set [7] it was 20 nM; in “cells” it was 70 nM.
Regarding `Nc1nc2c(ncn2[C@@H]2O[C@@H]3COP(=O)(O)O[C@@H]4[C@H](O)[C@@H](COP(=O)(O)O[C@@H]2[C@@H]3O)O[C@H]4n2cnc3c(N)ncnc32)c(=O)[nH]1`, the max activation in the data set filed under Homo sapiens is under 30%. Moreover, the Activity entry is “Non-Toxic” in data set [1] and 2.8% with Monocyte. In addition, the EC50 in data set [3] turned out to be 20 nM; in [4], 170 nM; in data set [5], 39200 nM; in [6], 30 nM; in [7], 30 nM; in “cells” it was 210 nM.
Turning to `Nc1ncnc2c1ncn2[C@@H]1O[C@@H]2COP(=O)(O)O[C@H]3[C@@H](O)[C@H](n4cnc5c(N)ncnc54)O[C@@H]3COP(=O)(O)O[C@H]2[C@H]1O`, the EC50 in data set [3] came to 200 nM; in [4] it was 7100 nM; in data set [5], 14900 nM; in [6], 200 nM; in data set [7] it was 300 nM.
`Nc1nc2c(ncn2[C@@H]2O[C@@H]3COP(=O)(O)O[C@H]4[C@@H](O)[C@H](n5cnc6c(=O)[nH]cnc65)O[C@@H]4COP(=O)(O)O[C@@H]2[C@@H]3O)c(=O)[nH]1` returned a max activation in the data set listed under Homo sapiens of under 30%. For the same compound, the results for the Activity result (in data set [1]; in the data set on Monocyte) were “Non-Toxic” and 17%, respectively. Moreover, the ΔTm in data set [2] amounted to 8.8 °C. Also, the EC50 in [3] was 300 nM; in data set [4], 2200 nM; in data set [5], 149000 nM; in data set [6], 140 nM; in data set [7] it was 50 nM; in the data set “cells”, 2100 nM.
`Nc1ncc2ncn([C@@H]3O[C@@H]4COP(=O)(O)O[C@@H]5[C@H](O)[C@@H](COP(=O)(O)O[C@H]4[C@H]3O)O[C@H]5n3cnc4c(=O)[nH]c(N)nc43)c2n1` gave a max activation in the data set listed under Homo sapiens of under 30%. Further, the figures for the Activity result (in [1]; in the data set on Monocyte) were “Non-Toxic” and 0.6%, respectively. For the same compound, the ΔTm in [2] was found to be 9.2 °C. Moreover, the EC50 amounted to 40 nM in data set [3]; 700 nM in data set [4]; 53900 nM in [5]; 40 nM in data set [6]; 20 nM in [7]; 1600 nM in the data set “cells”.
As for `NC(=O)c1ncn([C@@H]2O[C@@H]3COP(=O)(O)O[C@H]4[C@@H](O)[C@H](n5cnc6c(N)ncnc65)O[C@@H]4COP(=O)(O)O[C@@H]2[C@@H]3O)c1N`, the max activation in the data set filed under Homo sapiens is under 30%. The Activity entry is given as “Non-Toxic” in data set [1] and 87% in the data set with Monocyte. Further, the thermal shift (ΔTm) in data set [2] was 0.6 °C. The EC50 in data set [3] is 400 nM; in data set [4] it was 47200 nM; in data set [5], over 300000 nM; in data set [6] it was 420 nM; in data set [7], 830 nM; in the data set “cells” it was over 45000 nM.
With `Nc1nc2c(ncn2[C@@H]2O[C@@H]3CO[P@](=O)(O)O[C@H]4[C@@H](O)[C@H](n5cnc6c(=O)[nH]c(N)nc65)O[C@@H]4CO[P@](=O)(O)O[C@H]3[C@H]2O)c(=O)[nH]1`, the Activity result in [1] is “Non-Toxic”. Moreover, the EC50 in data set [3] was 900 nM; in [4], over 45000 nM; in data set [5], 184000 nM; in data set [6], 1100 nM; in [7], 4500 nM.
Turning to `Nc1nc2c(ncn2[C@@H]2O[C@@H]3COP(=O)(O)O[C@H]4C[C@H](n5cnc6c(N)nc(Cl)nc65)O[C@@H]4COP(=O)(O)O[C@@H]2[C@@H]3O)c(=O)[nH]1`, in the data set filed under Homo sapiens, the max activation is under 30%. The Activity entry in data set [1] is given as “Non-Toxic”; in the data set on Monocyte it was 0.1%. Also, the ΔTm in data set [2] stood at 9.5 °C. Besides, the EC50 in data set [3] is 80 nM; in data set [4], 960 nM; in data set [5] it was 58200 nM; in data set [6], 90 nM; in [7], 70 nM; in the data set “cells”, 4700 nM.
Consider `Nc1nc2c(ncn2[C@@H]2O[C@@H]3COP(=O)(O)O[C@H]4[C@@H](O)[C@H](n5cnc6c(O)nc(O)nc65)O[C@@H]4COP(=O)(O)O[C@@H]2[C@@H]3O)c(=O)[nH]1`, for which the max activation in the data set listed under Homo sapiens is under 30%. Moreover, the Activity result in [1] was “Non-Toxic”; with Monocyte, 45%. Moreover, in [2], the ΔTm is 2.4 °C. For the same compound, the 50% effective concentration (EC50) is 1700 nM in [3]; 32800 nM in [4]; over 300000 nM in data set [5]; 2000 nM in data set [6]; 1800 nM in data set [7]; 20900 nM in the data set “cells”.
`Nc1nc2c(ncn2[C@@H]2O[C@@H]3COP(=O)(O)O[C@H]4[C@@H](N)[C@H](n5cnc6c(N)ncnc65)O[C@@H]4COP(=O)(O)O[C@@H]2[C@@H]3O)c(=O)[nH]1` had a max activation in the data set filed under Homo sapiens of under 30%. The Activity result is recorded as “Non-Toxic” in data set [1] and 3% with Monocyte. For the same compound, in data set [2], the ΔTm was found to be 9.4 °C. Besides, the EC50 in [3] is 30 nM; in data set [4], 240 nM; in data set [5], 108000 nM; in data set [6] it was 20 nM; in data set [7] it was 20 nM; in “cells” it was 1400 nM.

Source of the values: ChEMBL document CHEMBL4334523, “Enzymatic Preparation of 2'-5',3'-5'-Cyclic Dinucleotides, Their Binding Properties to Stimulator of Interferon Genes Adaptor Protein, and Structure/Activity Correlations” (J Med Chem, 2019).
